{"source": "paper PMC8184911", "about": "“A small molecule HIF-1α stabilizer that accelerates diabetic wound healing” (Nature Communications, 2021)", "target": "T1, Von Hippel-Lindau (VHL) (Homo sapiens, UniProt P40337)", "T1 construct": "human recombinant VHL:ElonginB:ElonginC (VBC) complex; with ElonginB, ElonginC", "T1 sequence (P40337 whole entry)": "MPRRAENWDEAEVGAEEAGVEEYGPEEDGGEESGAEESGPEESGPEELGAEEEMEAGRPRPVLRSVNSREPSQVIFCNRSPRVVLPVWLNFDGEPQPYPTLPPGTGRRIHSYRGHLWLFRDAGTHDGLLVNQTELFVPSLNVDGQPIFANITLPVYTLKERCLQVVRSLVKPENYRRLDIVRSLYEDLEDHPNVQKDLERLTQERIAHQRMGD", "T1 sequence (Q15370 whole entry partner)": "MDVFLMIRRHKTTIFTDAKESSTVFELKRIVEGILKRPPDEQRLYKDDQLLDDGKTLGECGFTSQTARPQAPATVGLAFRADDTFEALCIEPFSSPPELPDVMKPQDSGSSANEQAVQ", "T1 sequence (Q15369 whole entry partner)": "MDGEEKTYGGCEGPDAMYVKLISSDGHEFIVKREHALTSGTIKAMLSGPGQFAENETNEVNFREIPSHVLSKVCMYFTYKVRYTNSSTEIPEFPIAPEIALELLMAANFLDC", "assay": "fluorescence-based protein thermal shift assay of purified VBC ([…] VH298, positive control, shift ca. […] °C)", "format": "binding", "details": "read-out: fluorescence-based protein thermal shift assay of purified VBC (100 μM VH298, po)"}
{"smiles": "Cc1ncsc1-c1ccc(CNC(=O)[C@@H]2C[C@@H](O)CN2C(=O)[C@@H](NC(=O)C2(C#N)CC2)C(C)(C)C)cc1", "note": "[VH298, (2 S, 4 R)-1-((S)-2-(1-cyanocyclopropanecarboxamido)-3,3-dimethylbutanoyl)-4-hydroxy-N-(4-(4-methylthiazol-5-yl)benzyl) pyrrolidine-2-carboxamide]", "values": [{"measurement": "ΔTm at 100 µM", "result": "~5", "unit": "°C"}]}
